# Experimental data taken from patent publication US8063221B2, “Aminoquinolones as GSK-3 inhibitors” (Kyorin Pharmaceutical Co., Ltd., priority 2006, dated 2011).
# Read-outs that look alike come from different tables or passages of the source.
# Assays:
# [1] = molecular target: T1, recombinant full-length human GSK3β (Homo sapiens, UniProt P49841); test: Luciferase-coupled cell-free GSK3β kinase assay; assay type: biochemical
# T1 construct: recombinant full-length human GSK3β (Upstate); purchased Upstate
# T1 sequence (P49841 whole entry): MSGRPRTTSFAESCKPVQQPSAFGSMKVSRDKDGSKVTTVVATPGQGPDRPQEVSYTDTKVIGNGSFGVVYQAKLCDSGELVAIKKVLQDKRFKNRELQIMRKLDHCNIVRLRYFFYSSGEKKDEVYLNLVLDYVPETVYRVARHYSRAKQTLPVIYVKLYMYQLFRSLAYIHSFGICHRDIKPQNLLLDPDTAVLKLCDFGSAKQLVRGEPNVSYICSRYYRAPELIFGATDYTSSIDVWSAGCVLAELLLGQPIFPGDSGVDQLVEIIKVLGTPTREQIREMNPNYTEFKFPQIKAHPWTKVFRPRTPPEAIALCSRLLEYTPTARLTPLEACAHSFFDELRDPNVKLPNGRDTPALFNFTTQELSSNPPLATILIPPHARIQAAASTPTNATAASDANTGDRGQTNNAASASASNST
# Description: For compounds in Tables 1 and 2, IC50 (μM) for GSK3β enzyme in cell free assay is provided as follows:
# Luciferase-Coupled Protein Kinase Assays
# All coupled-luciferase assays are performed by using a brief incubation with firefly luciferase (Promega) after completion of the kinase assay. KinaseGlo Plus is used for reading kinase reactions with ATP>10 μM, KinaseGlo for ATP <10 μM. The assay volume in a 384-well plate for the kinase reaction is 30 microliters.
# 10-25 ng of recombinant full-length human GSK3β (Upstate) is incubated in the presence or absence of compound at varying concentrations for 1 hour at 30 degrees Celsius in 20 mM MOPS, pH 7.0, 10 mM magnesium acetate, 0.2 mM EDTA, 2 mM EGTA, 30 mM magnesium chloride, 62.5 μM phospho-glycogen synthase peptide-2, 5 μM ATP, 10 mM β-glycerol phosphate, 1 mM sodium orthovanadate and 1 mM dithiothreitol. Proceed to KinaseGlo luciferase reaction (see below).
# Following the completion of the kinase reaction an equal volume of KinaseGlo or KinaseGlo Plus luciferase reagent (Promega) is added and the luminescence read using a luminescence plate reader within 5-10 minutes. Compound activity is expressed as % inhibition relative to maximal inhibition observed at the maximal dose and IC50 values then calculated using curve fitting software (GraphPad Prizm).
# E. coli, ATCC8739 = test: Antibacterial activity (MIC), E. coli; assay type: cell-based; settings: Escherichia coli
# From the text: (§1) As used herein, a minimum inhibitory concentration (MIC) for bacterial growth assay is the lowest level of a compound needed to cause an inhibition to bacterial growth in culture medium. In certain embodiments, the antibacterial activity of compounds herein, measured as MIC.
# (§2) In certain embodiments, GSK3 inhibitors provided herein are substantially free of antibacterial activity or having very low antibacterial activity. The antibacterial activity can be measured by methods known in the art by estimating a minimum inhibitory concentration (MIC) for test compounds. A MIC is the lowest level of a compound needed to cause an inhibition to bacterial growth in a culture medium. […] (Clinical and Laboratory Standards Institute. Methods for Dilution Antimicrobial Susceptibility Tests for Bacteria That Grow Aerobically; Approved Standard-Sixth Edition: CLSI document […]. CLSI, Wayne, Pa. (2003))
# (§3) Antibacterial activity for E. coli, ATCC8739 andS. aureus Smith expressed as MIC (μM) is provided as follows: […]
# S. aureus Smith = test: Antibacterial activity (MIC), S. aureus; assay type: cell-based; settings: Staphylococcus aureus
# From the text: as §1, §2, §3
# [2] = ATCC8739, Table 2, E. coli ATCC8739, read-out: Antimicrobial MIC [μM] E. Coli
# [3] = Table 2, S. aureus Smith, read-out: Antimicrobial MIC [μM] S. aureus
# [4] = ATCC8739, Table 1, E. coli ATCC8739, read-out: Antibacterial MIC (μM) E.Coli
# [5] = Table 1, read-out: Antibacterial MIC (μM) S. aureus Smith
# [6] = ATCC8739, read-out: Antibacterial MIC (μM) E.Coli
# [7] = read-out: Antibacterial MIC (μM) S. aureus Smith
SMILES,IC50 ([1]; Table 2),"MIC (E. coli, ATCC8739; [2])",MIC (S. aureus Smith; [3]),IC50 ([1]; Table 1),"MIC (E. coli, ATCC8739; [4])",MIC (S. aureus Smith; [5]),"MIC (E. coli, ATCC8739; [6])",MIC (S. aureus Smith; [7])
Nc1c(F)c(NCCCn2ccnc2)c2c3c1c(=O)c(C(=O)O)cn3CCO2 [compound 9],0.5 to 1 µM,10 to 50 µM,> 50 µM,,,,,
Nc1c(F)c(NCCc2ccc(F)cc2)c(F)c2c1c(=O)ccn2C1CC1 [compound 10],,,,0.5 to 1 µM,,,10 to 50 µM,10 to 50 µM
Nc1c(F)c(NCCc2ccncc2)c(F)c2c1c(=O)ccn2C1CC1 [compound 11],,,,0.1 to 0.5 µM,> 50 µM,> 50 µM,,
CC1COc2c(NCCNc3cccc(C(F)(F)F)n3)c(F)c(N)c3c(=O)c(C(=O)O)cn1c23 (stereo not drawn) [compound 12],< 0.1 µM,10 to 50 µM,0.5 to 10 µM,,,,,
Nc1ccc(CCNc2c(F)c(N)c3c(=O)ccn(C4CC4)c3c2F)cc1 [compound 12],,,,0.5 to 1 µM,> 50 µM,10 to 50 µM,,
CC1COc2c(NCCNc3nc(F)c(F)cc3F)c(F)c(N)c3c(=O)c(C(=O)O)cn1c23 (stereo not drawn) [compound 13],< 0.1 µM,10 to 50 µM,0.5 to 10 µM,,,,,
CC1COc2c(NCCNc3cccc(F)n3)c(F)c(N)c3c(=O)c(C(=O)O)cn1c23 (stereo not drawn) [compound 14],< 0.1 µM,10 to 50 µM,0.5 to 10 µM,,,,,
CC1COc2c(NCCNc3cc(F)cc(F)n3)c(F)c(N)c3c(=O)c(C(=O)O)cn1c23 (stereo not drawn) [compound 15],< 0.1 µM,0.5 to 10 µM,0.5 to 10 µM,,,,,
Nc1c(F)c(NCCNc2ccccn2)c(F)c2c1c(=O)ccn2C1CC1 [compound 15],,,,0.1 to 0.5 µM,> 50 µM,> 50 µM,,
CC1(C)COc2c(NCCNc3ccccn3)c(F)c(N)c3c(=O)c(C(=O)O)cn1c23 [compound 16],< 0.1 µM,> 50 µM,> 50 µM,,,,,
CC(C)OCCCNc1c(F)c(N)c2c(=O)c(C(=O)O)cn(C3CC3)c2c1F [compound 17],,,,0.1 to 0.5 µM,,,0.5 to 10 µM,0.5 to 10 µM
C[C@H]1COc2c(NCCCn3ccnc3)c(F)c(N)c3c(=O)c(C(=O)O)cn1c23 [compound 20],0.1 to 0.5 µM,10 to 50 µM,0.5 to 10 µM,,,,,
CC(C)OCCCNc1c(F)c(N)c2c(=O)c(C(=O)O)cn3c2c1OC[C@@H]3C [compound 21],0.1 to 0.5 µM,> 50 µM,0.5 to 10 µM,,,,,
C[C@H]1COc2c(NCCCN3CCCC3=O)c(F)c(N)c3c(=O)c(C(=O)O)cn1c23 [compound 23],0.1 to 0.5 µM,0.5 to 10 µM,0.5 to 10 µM,,,,,
CC1(C)COc2c(NCCNc3ccccn3)c(F)c(N)c3c(=O)c(C(=O)O)cn(c23)C1 [compound 24],0.1 to 0.5 µM,0.5 to 10 µM,0.5 to 10 µM,,,,,
CC1(C)COc2c(NCCCn3ccnc3)c(F)c(N)c3c(=O)c(C(=O)O)cn(c23)C1 [compound 26],< 0.1 µM,10 to 50 µM,10 to 50 µM,,,,,
Nc1c(F)c(NCCCn2ccnc2)c(F)c2c1c(=O)ccn2C1CC1 [compound 26],,,,0.1 to 0.5 µM,> 50 µM,> 50 µM,,
Nc1c(F)c(NCCc2c[nH]c3ccccc23)c(F)c2c1c(=O)ccn2C1CC1 [compound 28],,,,0.1 to 0.5 µM,> 50 µM,> 50 µM,,
CC(C)(C)OC(=O)NCCNc1c(F)c(N)c2c(=O)ccn(C3CC3)c2c1F [compound 29],,,,0.1 to 0.5 µM,> 50 µM,> 50 µM,,
C[C@@H]1COc2c(NCCNc3ccccn3)c(F)c(N)c3c(=O)c(C(=O)O)cn1c23 [compound 30],0.5 to 1 µM,> 50 µM,> 50 µM,,,,,
CC1(C)COc2c(NCCNc3cccc4ccccc34)c(F)c(N)c3c(=O)c(C(=O)O)cn1c23 [compound 36],< 0.1 µM,10 to 50 µM,10 to 50 µM,,,,,
CC1(C)COc2c(NCCCn3cnc4ccccc43)c(F)c(N)c3c(=O)c(C(=O)O)cn1c23 [compound 37],< 0.1 µM,0.5 to 10 µM,0.5 to 10 µM,,,,,
CC1(C)COc2c(NCCc3ccncc3)c(F)c(N)c3c(=O)c(C(=O)O)cn1c23 [compound 39],0.1 to 0.5 µM,> 50 µM,10 to 50 µM,,,,,
CC(C)OCCCNc1c(F)c(N)c2c(=O)c(C(=O)O)cn3c2c1OCC3(C)C [compound 40],0.1 to 0.5 µM,> 50 µM,> 50 µM,,,,,
CC1(C)COc2c(NCCCN3CCCC3=O)c(F)c(N)c3c(=O)c(C(=O)O)cn1c23 [compound 41],< 0.1 µM,> 50 µM,> 50 µM,,,,,
CC(C)C[C@H]1COc2c(NCCCn3cnc4ccccc43)c(F)c(N)c3c(=O)c(C(=O)O)cn1c23 [compound 48],< 0.1 µM,10 to 50 µM,10 to 50 µM,,,,,
Nc1c(F)c(NCCNc2ccccn2)c(F)c2c1c(=O)c(C(=O)O)cn2CCc1ccccc1 [compound 49],,,,0.1 to 0.5 µM,,,10 to 50 µM,10 to 50 µM

# Now from value to molecule, other results behind:
IC50 ([1]; Table 2),"MIC (E. coli, ATCC8739; [2])",MIC (S. aureus Smith; [3]),IC50 ([1]; Table 1),"MIC (E. coli, ATCC8739; [4])",MIC (S. aureus Smith; [5]),SMILES,"MIC (E. coli, ATCC8739; [6])",MIC (S. aureus Smith; [7])
< 0.1 µM,10 to 50 µM,0.5 to 10 µM,,,,CC1COc2c(NCCCn3cnc4ccccc43)c(F)c(N)c3c(=O)c(C(=O)O)cn1c23 (stereo not drawn) [compound 6],,
,,,0.1 to 0.5 µM,0.5 to 10 µM,0.5 to 10 µM,Nc1c(F)c(NCCNc2ccccn2)c(F)c2c1c(=O)c(C(=O)O)cn2C1CC1 [compound 7],,
> 1 µM,10 to 50 µM,10 to 50 µM,,,,Nc1c(F)c(NCCCc2ccccc2)c2c3c1c(=O)c(C(=O)O)cn3CCO2 [compound 8],,
,,,0.1 to 0.5 µM,10 to 50 µM,10 to 50 µM,Nc1c(F)c(NCCCc2ccccc2)c(F)c2c1c(=O)ccn2C1CC1 [compound 13],,
,,,0.5 to 1 µM,0.5 to 10 µM,< 0.5 µM,Nc1c(F)c(NCCc2ccc(O)cc2)c(F)c2c1c(=O)c(C(=O)O)cn2C1CC1 [compound 16],,
< 0.1 µM,10 to 50 µM,0.5 to 10 µM,,,,C[C@H]1COc2c(NCCCn3cnc4ccccc43)c(F)c(N)c3c(=O)c(C(=O)O)cn1c23 [compound 19],,
,,,0.1 to 0.5 µM,0.5 to 10 µM,0.5 to 10 µM,Nc1c(F)c(NCCc2ccc(F)cc2F)c(F)c2c1c(=O)c(C(=O)O)cn2C1CC1 [compound 19],,
,,,0.1 to 0.5 µM,10 to 50 µM,0.5 to 10 µM,Nc1c(F)c(NCCCCc2ccccc2)c(F)c2c1c(=O)c(C(=O)O)cn2C1CC1 [compound 20],,
,,,0.5 to 1 µM,0.5 to 10 µM,0.5 to 10 µM,CC(C)(C)OC(=O)NCCNc1c(F)c(N)c2c(=O)c(C(=O)O)cn(C3CC3)c2c1F [compound 21],,
,,,< 0.1 µM,0.5 to 10 µM,0.5 to 10 µM,Nc1c(F)c(NCCCn2ccnc2)c(F)c2c1c(=O)c(C(=O)O)cn2C1CC1 [compound 23],,
< 0.1 µM,0.5 to 10 µM,0.5 to 10 µM,,,,CC1(C)COc2c(NCCCc3ccccc3)c(F)c(N)c3c(=O)c(C(=O)O)cn(c23)C1 [compound 25],,
0.1 to 0.5 µM,10 to 50 µM,10 to 50 µM,,,,C[C@@H]1COc2c(NCCCn3cnc4ccccc43)c(F)c(N)c3c(=O)c(C(=O)O)cn1c23 [compound 32],,
< 0.1 µM,10 to 50 µM,10 to 50 µM,,,,CC1(C)COc2c(NCCCc3ccccc3)c(F)c(N)c3c(=O)c(C(=O)O)cn1c23 [compound 38],,
,,,< 0.1 µM,0.5 to 10 µM,0.5 to 10 µM,Nc1c(F)c(NCCNc2cccc3ccccc23)c(F)c2c1c(=O)c(C(=O)O)cn2C1CC1 [compound 43],,
,,,< 0.1 µM,10 to 50 µM,10 to 50 µM,Nc1c(F)c(NCCCc2ccccc2)c(F)c2c1c(=O)c(C(=O)O)cn2CCc1ccccc1 [compound 46],,
,,,< 0.1 µM,10 to 50 µM,10 to 50 µM,Nc1c(F)c(NCCc2ccncc2)c(F)c2c1c(=O)c(C(=O)O)cn2CCc1ccccc1 [compound 47],,
,,,< 0.1 µM,> 50 µM,> 50 µM,Nc1c(F)c(NCCCn2ccnc2)c(F)c2c1c(=O)c(C(=O)O)cn2CCc1ccccc1 [compound 48],,
,,,0.5 to 1 µM,0.5 to 10 µM,0.5 to 10 µM,CC(C)OCCCNc1c(F)c(N)c2c(=O)c(C(=O)O)cn(CCc3ccccc3)c2c1F [compound 50],,
< 0.1 µM,10 to 50 µM,10 to 50 µM,,,,CC(C)C[C@H]1COc2c(NCCCc3ccccc3)c(F)c(N)c3c(=O)c(C(=O)O)cn1c23 [compound 50],,
